Assays:
[1] = target: mTOR (human recombinant aa mTOR 1360-2549) (Homo sapiens (Human), UniProt P42345); assay: mTOR enzymatic test by TR-FRET (phosphorylation of GFP-4EBP1); assay type: biochemical
Outline: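 TR-FRET detection of GFP-4EBP1 phosphorylation by a terbium-labelled anti-phospho-Thr46 antibody. Kinase reaction ran 30 min at room temperature, was quenched with EDTA (10 mM final) plus Tb-antibody (2 nM final) and left 60 min. Emission at 520 and 490 nm after 340 nm excitation, reported as the 520/490 ratio.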

Akt-pS473 in U87MG cells = details: Homo sapiens, U-87 MG, read-out: U87 Akt-pS473 % Inhibition or IC50, nM (IC50), U87MG cells
PI3Kα (p110α/p85α) = PI3Kα (p110α/p85α) (Homo sapiens (Human), UniProt P42336); assay: PI3Kα enzymatic test by measuring the consumption of ATP; assay type: biochemical
Outline: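 p110α/p85α (1.7 μg/ml) with 50 μM PIP2 and 2 μM ATP in pH 7.5 Tris buffer with EGTA, MgCl2, Chaps, DTT; reaction 90 min. Remaining ATP measured by luciferin/luciferase luminescence; IC50 from threefold serial dilutions spanning at least 10 000-fold.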

U87MG tumour cells = assay: Test of in vitro proliferation of U87MG tumour cells; assay type: cell-based; details: Homo sapiens, U-87 MG, 72 h, U87MG cells, 72 hours; read-out: U87 Cell Proliferation IC50
Procedure: Model 4: Test of in vitro Proliferation of U87MG Tumour Cells.
The cell growth is determined with the reagent CellTiter 96 AQueous One Solution Cell Proliferation Assay from Promega (Cat. No. G3581).

Sequence of PI3Kα (p110α/p85α) (P42336 whole entry): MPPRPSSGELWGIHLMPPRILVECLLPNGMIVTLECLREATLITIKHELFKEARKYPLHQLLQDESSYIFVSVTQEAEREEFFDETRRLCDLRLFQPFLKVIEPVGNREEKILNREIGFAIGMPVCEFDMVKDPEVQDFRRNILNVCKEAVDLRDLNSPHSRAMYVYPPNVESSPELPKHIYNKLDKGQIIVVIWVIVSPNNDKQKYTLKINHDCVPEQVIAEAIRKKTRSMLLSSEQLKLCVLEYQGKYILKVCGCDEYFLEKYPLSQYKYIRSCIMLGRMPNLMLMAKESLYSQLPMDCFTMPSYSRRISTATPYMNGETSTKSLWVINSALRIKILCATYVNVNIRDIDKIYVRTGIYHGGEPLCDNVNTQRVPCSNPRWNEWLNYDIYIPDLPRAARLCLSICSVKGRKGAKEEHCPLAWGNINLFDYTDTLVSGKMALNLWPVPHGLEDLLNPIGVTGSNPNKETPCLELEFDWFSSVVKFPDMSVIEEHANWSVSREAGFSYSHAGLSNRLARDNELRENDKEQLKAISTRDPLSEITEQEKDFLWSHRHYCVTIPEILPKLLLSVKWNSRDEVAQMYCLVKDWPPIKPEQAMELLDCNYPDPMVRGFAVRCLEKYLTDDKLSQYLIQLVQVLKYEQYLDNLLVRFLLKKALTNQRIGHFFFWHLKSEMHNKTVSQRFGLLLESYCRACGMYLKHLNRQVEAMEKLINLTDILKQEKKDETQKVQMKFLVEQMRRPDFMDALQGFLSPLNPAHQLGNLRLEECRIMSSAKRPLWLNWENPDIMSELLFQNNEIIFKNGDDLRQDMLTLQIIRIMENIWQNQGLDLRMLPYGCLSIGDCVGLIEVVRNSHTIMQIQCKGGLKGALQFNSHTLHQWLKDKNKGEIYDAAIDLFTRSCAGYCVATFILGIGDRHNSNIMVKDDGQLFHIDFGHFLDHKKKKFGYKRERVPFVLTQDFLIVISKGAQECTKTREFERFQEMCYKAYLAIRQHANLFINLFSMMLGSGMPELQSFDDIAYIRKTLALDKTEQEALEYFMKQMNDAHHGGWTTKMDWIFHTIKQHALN
Sequence of PI3Kα (p110α/p85α) (P27986 whole entry partner): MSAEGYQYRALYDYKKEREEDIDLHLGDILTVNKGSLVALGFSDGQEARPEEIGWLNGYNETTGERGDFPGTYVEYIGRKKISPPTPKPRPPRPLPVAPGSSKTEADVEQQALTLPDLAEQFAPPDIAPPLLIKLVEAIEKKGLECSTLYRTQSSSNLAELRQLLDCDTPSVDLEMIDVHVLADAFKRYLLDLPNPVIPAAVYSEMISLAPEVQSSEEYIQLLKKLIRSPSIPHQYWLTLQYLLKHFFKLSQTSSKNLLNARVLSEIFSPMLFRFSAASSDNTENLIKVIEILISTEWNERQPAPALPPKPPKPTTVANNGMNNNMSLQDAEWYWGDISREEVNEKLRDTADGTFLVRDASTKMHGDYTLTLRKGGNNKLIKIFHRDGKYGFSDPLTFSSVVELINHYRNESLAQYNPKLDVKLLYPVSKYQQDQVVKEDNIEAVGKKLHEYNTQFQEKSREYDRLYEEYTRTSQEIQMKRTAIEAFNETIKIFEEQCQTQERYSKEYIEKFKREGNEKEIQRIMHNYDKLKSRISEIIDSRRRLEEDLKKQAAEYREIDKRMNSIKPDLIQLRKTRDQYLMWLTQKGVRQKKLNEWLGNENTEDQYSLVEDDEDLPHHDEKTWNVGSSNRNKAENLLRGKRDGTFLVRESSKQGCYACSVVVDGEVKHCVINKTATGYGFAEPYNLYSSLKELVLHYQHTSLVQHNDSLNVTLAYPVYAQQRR
Sequence of mTOR (human recombinant aa mTOR 1360-2549) (P42345 1360-2549): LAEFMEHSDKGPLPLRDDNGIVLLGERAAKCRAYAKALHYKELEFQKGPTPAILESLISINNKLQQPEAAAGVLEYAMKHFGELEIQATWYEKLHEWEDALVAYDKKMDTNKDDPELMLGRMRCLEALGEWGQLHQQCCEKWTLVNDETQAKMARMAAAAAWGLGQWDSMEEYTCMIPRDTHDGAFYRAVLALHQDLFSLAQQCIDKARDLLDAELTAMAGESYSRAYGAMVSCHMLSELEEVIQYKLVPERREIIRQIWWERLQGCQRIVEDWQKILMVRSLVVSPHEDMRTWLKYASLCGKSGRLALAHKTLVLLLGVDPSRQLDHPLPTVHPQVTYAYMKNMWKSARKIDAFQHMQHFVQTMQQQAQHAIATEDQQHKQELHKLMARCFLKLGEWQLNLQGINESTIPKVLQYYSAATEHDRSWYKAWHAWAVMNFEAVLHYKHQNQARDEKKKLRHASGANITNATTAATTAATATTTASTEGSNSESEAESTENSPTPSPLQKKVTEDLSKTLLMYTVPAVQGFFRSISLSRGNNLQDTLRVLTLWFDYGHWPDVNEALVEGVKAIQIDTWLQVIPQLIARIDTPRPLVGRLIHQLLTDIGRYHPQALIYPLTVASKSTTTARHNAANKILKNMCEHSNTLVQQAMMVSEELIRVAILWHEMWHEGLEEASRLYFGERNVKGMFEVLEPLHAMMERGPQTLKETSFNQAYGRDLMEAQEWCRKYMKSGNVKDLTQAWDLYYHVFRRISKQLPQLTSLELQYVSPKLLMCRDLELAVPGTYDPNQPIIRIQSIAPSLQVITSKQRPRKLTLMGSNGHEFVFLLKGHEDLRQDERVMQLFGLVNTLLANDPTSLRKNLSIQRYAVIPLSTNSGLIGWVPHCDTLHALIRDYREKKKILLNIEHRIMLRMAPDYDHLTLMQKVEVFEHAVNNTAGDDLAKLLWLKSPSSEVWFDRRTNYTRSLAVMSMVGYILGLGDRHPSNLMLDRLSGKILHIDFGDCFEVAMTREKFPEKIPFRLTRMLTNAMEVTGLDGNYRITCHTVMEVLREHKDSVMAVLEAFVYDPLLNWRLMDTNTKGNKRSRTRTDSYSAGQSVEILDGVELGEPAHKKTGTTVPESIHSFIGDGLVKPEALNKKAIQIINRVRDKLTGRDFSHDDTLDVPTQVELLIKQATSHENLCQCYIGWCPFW

`CCN1CC(C)(C)Oc2nc(N3CC4CCC(C3)O4)nc(-c3ccc(NC(=O)Nc4cncc(OC)n4)c(F)c3)c2C1=O` [Example 139, 1-{4-[6-Ethyl-8,8-dimethyl-2-(8-oxa-3-azabicyclo[3.2.1]oct-3-yl)-5-oxo-5,6,7,8-tetrahydro-9-oxa-1,3,6-triazabenzocyclohepten-4-yl]-2-fluorophenyl}-3-(6-methoxypyrazin-2-yl)urea] was tested. Which IC50 [1] did it give?
The IC50 was 251 nM.

And the IC50 (Akt-pS473 in U87MG cells)?
The IC50 was 721 nM.

What about the “PI3Ka IC50” value (PI3Kα (p110α/p85α)) of the same compound?
The value was over 10000 nM.

What about the IC50 (U87MG tumour cells) of the same compound?
Its IC50 is 3010 nM.

Which IC50 [1] does the source give for `CCN1CC(C)(C)Oc2nc(N3CC4CCC(C3)O4)nc(-c3ccc(NC(=O)Nc4ccc(OC)nn4)c(F)c3)c2C1=O` [Example 140, 1-{4-[6-Ethyl-8,8-dimethyl-2-(8-oxa-3-azabicyclo[3.2.1]oct-3-yl)-5-oxo-5,6,7,8-tetrahydro-9-oxa-1,3,6-triazabenzocyclohepten-4-yl]-2-fluorophenyl}-3-(6-methoxypyridazin-3-yl)urea] here?
The IC50 was 45 nM.

What about the IC50 (Akt-pS473 in U87MG cells) of the same compound?
Its IC50 is 507 nM.

What about the “PI3Ka IC50” value (PI3Kα (p110α/p85α)) of the same compound?
The value was over 10000 nM.

And the IC50 (U87MG tumour cells)?
Its IC50 is 472 nM.

How did the IC50 [1] turn out when `CCN1CC(C)(C)Oc2nc(N3CCOC[C@@H]3C)nc(-c3ccc(NC(=O)Nc4ccc(OC)nc4)c(F)c3)c2C1=O` [Example 141, 1-{4-[6-Ethyl-8,8-dimethyl-2-((S)-3-methylmorpholin-4-yl)-5-oxo-5,6,7,8-tetrahydro-9-oxa-1,3,6-triazabenzocyclohepten-4-yl]-2-fluorophenyl}-3-(6-methoxypyridin-3-yl)urea] was run?
Its IC50 is 34 nM.

And the IC50 (Akt-pS473 in U87MG cells)?
The IC50 was 19 nM.

And the “PI3Ka IC50” value (PI3Kα (p110α/p85α))?
The value was 598 nM.

What about the IC50 (U87MG tumour cells) of the same compound?
The IC50 was 94 nM.

`CCN1CC(C)(C)Oc2nc(N3CC4CCC(C3)O4)nc(-c3ccc(NC(=O)Nc4cnn(C)c4)c(F)c3)c2C1=O` [Example 143, 1-{4-[6-Ethyl-8,8-dimethyl-2-(8-oxa-3-azabicyclo[3.2.1]oct-3-yl)-5-oxo-5,6,7,8-tetrahydro-9-oxa-1,3,6-triazabenzocyclohepten-4-yl]-2-fluorophenyl}-3-(1-methyl-1H-pyrazol-4-yl)urea] was tested. Which IC50 [1] did it give?
The IC50 was 19 nM.

And the IC50 (Akt-pS473 in U87MG cells)?
The IC50 was 62 nM.

And the “PI3Ka IC50” value (PI3Kα (p110α/p85α))?
The value was 3180 nM.

And the IC50 (U87MG tumour cells)?
Its IC50 is 295 nM.

Which results are given for `CCN1CC(C)(C)Oc2nc(N3CC4CCC(C3)O4)nc(-c3ccc(NC(=O)Nc4ccnc(OC)n4)c(F)c3)c2C1=O` [Example 144, 1-{4-[6-Ethyl-8,8-dimethyl-2-(8-oxa-3-azabicyclo[3.2.1]oct-3-yl)-5-oxo-5,6,7,8-tetrahydro-9-oxa-1,3,6-triazabenzocyclohepten-4-yl]-2-fluorophenyl}-3-(2-methoxypyrimidin-4-yl)urea]?
IC50 [1]: 105 nM; IC50 (Akt-pS473 in U87MG cells): 142 nM; PI3Ka IC50 (PI3Kα (p110α/p85α)): >10000 nM; IC50 (U87MG tumour cells): 2570 nM

What does the source list for `CCN1CC(C)(C)Oc2nc(N3CC4CCC(C3)O4)nc(-c3ccc(NC(=O)Nc4ccc(OC)nn4)cc3)c2C1=O` [Example 146, 1-{4-[6-Ethyl-8,8-dimethyl-2-(8-oxa-3-azabicyclo[3.2.1]oct-3-yl)-5-oxo-5,6,7,8-tetrahydro-9-oxa-1,3,6-triazabenzocyclohepten-4-yl]phenyl}-3-(6-methoxypyridazin-3-yl)urea]?
IC50 [1]: 35 nM; IC50 (Akt-pS473 in U87MG cells): 82 nM; PI3Ka IC50 (PI3Kα (p110α/p85α)): >10000 nM; IC50 (U87MG tumour cells): 441 nM

Which results are given for `CCN1CC(C)(C)Oc2nc(N3CC4CCC(C3)O4)nc(-c3ccc(NC(=O)Nc4cccc(C(F)(F)F)c4)cc3)c2C1=O` [Example 147, 1-{4-[6-Ethyl-8,8-dimethyl-2-(8-oxa-3-azabicyclo[3.2.1]oct-3-yl)-5-oxo-5,6,7,8-tetrahydro-9-oxa-1,3,6-triazabenzocyclohepten-4-yl]phenyl}-3-(3-trifluoromethylphenyl)urea]?
IC50 [1]: 182 nM; IC50 (Akt-pS473 in U87MG cells): 28 nM; PI3Ka IC50 (PI3Kα (p110α/p85α)): >10000 nM; IC50 (U87MG tumour cells): 297 nM

How did the IC50 [1] turn out when `COc1ccc(NC(=O)Nc2ccc(-c3nc(N4CC5CCC(C4)O5)nc4c3C(=O)N(C3CCOCC3)CC(C)(C)O4)cc2)cn1` [Example 148, 1-{4-[8,8-Dimethyl-2-(8-oxa-3-azabicyclo[3.2.1]oct-3-yl)-5-oxo-6-(tetrahydropyran-4-yl)-5,6,7,8-tetrahydro-9-oxa-1,3,6-triazabenzocyclohepten-4-yl]phenyl}-3-(6-methoxypyridin-3-yl)urea] was run?
The IC50 was 68 nM.

What about the IC50 (Akt-pS473 in U87MG cells) of the same compound?
Its IC50 is 21 nM.

And the “PI3Ka IC50” value (PI3Kα (p110α/p85α))?
Its value is over 10000 nM.

And the IC50 (U87MG tumour cells)?
The IC50 was 490 nM.

Which IC50 [1] does the source give for `CCN1CC(C)(C)Oc2nc(N3CCOC[C@@H]3C)nc(-c3ccc(NC(=O)NCC(F)(F)F)c(F)c3)c2C1=O` [Example 149, 1-{4-[6-Ethyl-8,8-dimethyl-2-((S)-3-methylmorpholin-4-yl)-5-oxo-5,6,7,8-tetrahydro-9-oxa-1,3,6-triazabenzocyclohepten-4-yl]-2-fluorophenyl}-3-(2,2,2-trifluoroethyl)urea] here?
The IC50 was 113 nM.

And the IC50 (Akt-pS473 in U87MG cells)?
The IC50 was 154 nM.

And the “PI3Ka IC50” value (PI3Kα (p110α/p85α))?
Its value is over 10000 nM.

And the IC50 (U87MG tumour cells)?
Its IC50 is 854 nM.

What does the source list for `CCN1CC(C)(C)Oc2nc(N3CCOC[C@@H]3C)nc(-c3ccc(NC(=O)NC4CC4)c(F)c3)c2C1=O` [Example 150, 1-Cyclopropyl-3-{4-[6-ethyl-8,8-dimethyl-2-((S)-3-methylmorpholin-4-yl)-5-oxo-5,6,7,8-tetrahydro-9-oxa-1,3,6-triazabenzocyclohepten-4-yl]-2-fluorophenyl}urea]?
IC50 [1]: 40 nM; IC50 (Akt-pS473 in U87MG cells): 73 nM; PI3Ka IC50 (PI3Kα (p110α/p85α)): 5800 nM; IC50 (U87MG tumour cells): 201 nM

What does the source list for `CCNC(=O)Nc1ccc(-c2nc(N3CCOC[C@@H]3CC)nc3c2C(=O)N(CC)CC(C)(C)O3)cc1F` [Example 151, 1-Ethyl-3-{4-[6-ethyl-2-((S)-3-ethylmorpholin-4-yl)-8,8-dimethyl-5-oxo-5,6,7,8-tetrahydro-9-oxa-1,3,6-triazabenzocyclohepten-4-yl]-2-fluorophenyl}urea]?
IC50 [1]: 116 nM; IC50 (Akt-pS473 in U87MG cells): 82 nM; PI3Ka IC50 (PI3Kα (p110α/p85α)): >10000 nM; IC50 (U87MG tumour cells): 531 nM

What does the source list for `CCN1CC(C)(C)Oc2nc(N3CC4CCC(C3)O4)nc(-c3ccc(Nc4nnc(C)[nH]4)c(F)c3)c2C1=O` [Example 152, 6-Ethyl-4-[3-fluoro-4-(5-methyl-4H-[1,2,4]triazol-3-ylamino)phenyl]-8,8-dimethyl-2-(8-oxa-3-azabicyclo[3.2.1]oct-3-yl)-7,8-dihydro-6H-9-oxa-1,3,6-triazabenzocyclohepten-5-one]?
IC50 [1]: 348 nM; IC50 (Akt-pS473 in U87MG cells): 257 nM; PI3Ka IC50 (PI3Kα (p110α/p85α)): >10000 nM; IC50 (U87MG tumour cells): 2680 nM

For `CC1(C)CN(C2CCOCC2)C(=O)c2c(nc(N3CC4CCC(C3)O4)nc2-c2ccc(NC(=O)Nc3ccon3)c(F)c2)O1` [Example 153, 1-{4-[8,8-Dimethyl-2-(8-oxa-3-azabicyclo[3.2.1]oct-3-yl)-5-oxo-6-(tetrahydropyran-4-yl)-5,6,7,8-tetrahydro-9-oxa-1,3,6-triazabenzocyclohepten-4-yl]-2-fluorophenyl}-3-isoxazol-3-ylurea], which IC50 [1] is on record?
The IC50 was 31 nM.

And the IC50 (Akt-pS473 in U87MG cells)?
Its IC50 is 116 nM.

And the “PI3Ka IC50” value (PI3Kα (p110α/p85α))?
The value was over 10000 nM.

And the IC50 (U87MG tumour cells)?
Its IC50 is 346 nM.

Which IC50 [1] does the source give for `CCN1CC(C)(C)Oc2nc(N3CC4CCC(C3)O4)nc(-c3ccc(NC(=O)Nc4ccc(C(F)(F)F)cc4F)cc3)c2C1=O` [Example 154, 1-{4-[6-Ethyl-8,8-dimethyl-2-(8-oxa-3-azabicyclo[3.2.1]oct-3-yl)-5-oxo-5,6,7,8-tetrahydro-9-oxa-1,3,6-triazabenzocyclohepten-4-yl]phenyl}-3-(2-fluoro-4-trifluoromethylphenyl)urea] here?
Its IC50 is 182 nM.

What about the IC50 (Akt-pS473 in U87MG cells) of the same compound?
The IC50 was 54 nM.

What about the “PI3Ka IC50” value (PI3Kα (p110α/p85α)) of the same compound?
Its value is over 10000 nM.

And the IC50 (U87MG tumour cells)?
Its IC50 is 97 nM.

What does the source list for `CCN1CC(C)(C)Oc2nc(N3CC4CCC(C3)O4)nc(-c3ccc(NC(=O)Nc4cc(OC)c(F)cc4F)cc3)c2C1=O` [Example 155, 1-(2,4-Difluoro-5-methoxyphenyl)-3-{4-[6-ethyl-8,8-dimethyl-2-(8-oxa-3-azabicyclo[3.2.1]oct-3-yl)-5-oxo-5,6,7,8-tetrahydro-9-oxa-1,3,6-triazabenzocyclohepten-4-yl]phenyl}urea]?
IC50 [1]: 79 nM; IC50 (Akt-pS473 in U87MG cells): 59 nM; PI3Ka IC50 (PI3Kα (p110α/p85α)): >10000 nM; IC50 (U87MG tumour cells): 142 nM

What does the source list for `C[C@H]1COCCN1c1nc2c(c(-c3ccc(NC(=O)Nc4ccon4)c(F)c3)n1)C(=O)N(C1CCOCC1)CC(C)(C)O2` [Example 156, 1-{4-[8,8-Dimethyl-2-((S)-3-methylmorpholin-4-yl)-5-oxo-6-(tetrahydropyran-4-yl)-5,6,7,8-tetrahydro-9-oxa-1,3,6-triazabenzocyclohepten-4-yl]-2-fluorophenyl}-3-isoxazol-3-ylurea]?
IC50 [1]: 27 nM; IC50 (Akt-pS473 in U87MG cells): 92 nM; PI3Ka IC50 (PI3Kα (p110α/p85α)): 1140 nM; IC50 (U87MG tumour cells): 395 nM

With `CC1(C)CN(C2CCOCC2)C(=O)c2c(nc(N3CC4CCC(C3)O4)nc2-c2ccc(NC(=O)Nc3ccon3)cc2)O1` [Example 157, 1-{4-[8,8-Dimethyl-2-(8-oxa-3-azabicyclo[3.2.1]oct-3-yl)-5-oxo-6-(tetrahydropyran-4-yl)-5,6,7,8-tetrahydro-9-oxa-1,3,6-triazabenzocyclohepten-4-yl]phenyl}-3-isoxazol-3-ylurea] as the compound, how does the IC50 [1] read?
The IC50 was 27 nM.

What about the IC50 (Akt-pS473 in U87MG cells) of the same compound?
Its IC50 is 67 nM.

What about the “PI3Ka IC50” value (PI3Kα (p110α/p85α)) of the same compound?
Its value is over 10000 nM.

What about the IC50 (U87MG tumour cells) of the same compound?
Its IC50 is 260 nM.

With `CCN1CC(C)(C)Oc2nc(N3CC4CCC(C3)O4)nc(-c3ccc(NC(=O)Nc4ccccn4)c(F)c3)c2C1=O` [Example 158, 1-{4-[6-Ethyl-8,8-dimethyl-2-(8-oxa-3-azabicyclo[3.2.1]oct-3-yl)-5-oxo-5,6,7,8-tetrahydro-9-oxa-1,3,6-triazabenzocyclohepten-4-yl]-2-fluorophenyl}-3-pyridin-2-ylurea] as the compound, how does the IC50 [1] read?
The IC50 was 64 nM.

And the IC50 (Akt-pS473 in U87MG cells)?
Its IC50 is 1600 nM.

And the “PI3Ka IC50” value (PI3Kα (p110α/p85α))?
Its value is over 10000 nM.

What about the IC50 (U87MG tumour cells) of the same compound?
Its IC50 is 1700 nM.
